# Measured values taken from US4025555A, “Aromatic amidines as antiviral agents in animals” (Pfizer Inc., priority 1976, dated 1977).
# “And” between values parts separate entries of the source, which are not always exact repeats. Equal values may be shown once.
# Tested on: encephalomyocarditis (EMC) virus
# Experiment: Antiviral activity in mice challenged with lethal dose of encephalomyocarditis (EMC) virus (survival, relative survival, ED50)
# Format: in vivo, female albino mice
# Settings: Mus musculus, ip, 240 h; as mg. dihydrochloride salt; i.p. 18-24 h before EMC virus challenge; day 10; read-out: ED50
# Description: The antiviral activity of the compounds of formula I is determined by the following procedure. The test compound is administered to mice by the intraperitoneal route eighteen to twenty-four hours prior to challenging them with a lethal dose of encephalomyocarditis (EMC) virus. The survival rate is determined ten days after challenge and an ED50 [dosage level (mg of compound/kg body weight) required to obtain a fifty percent survival rate] calculated. The procedure in which the drug is given eighteen to twenty-four hours before, and at a distinctly different site from, virus injection is designed to eliminate local effects between drug and virus and identify only those compounds which produce a systemic antiviral response.
# Three groups of ten female albino mice (20-25 g. body weight) were given single 0.5 ml. intraperitoneal injections containing dosage levels of 1.5, 5, and 15 mg. of the named compound/kg. body weight, respectively. A fourth control group was given no such injection. Eighteen to twenty-four hours later all four groups were challenged with a 0.2 ml. subcutaneous injection containing 20-30 times the LD50, the dosage level causing a 50% death rate in ten days, of encephalomyocarditis (EMC) virus. The following survival data were recorded for the following ten days:
# Antiviral activity is expressed as the relative survival (Sr) in experimental groups compared to the controls on the tenth day after challenge. Sr is defined by the formula [formula] wherein Sr = relative survival […]
# Sx = percent survival after ten days in experimental group xi = number of survivors on the ith day in experimental group ei = number of survivors on the ith day in control group
# The ED50 [dosage level (mg. of compound/kg. body weight) required to obtain a fifty percent survival rate] is determined graphically by plotting Sr (ordinate) vs. 1n dosage level (abscissa) and then fitting the points with a line of predetermined slope by least squares. The dosage level at which this fitted line has an ordinate of 50 is equivalent to the ED50.
# In like manner to that described in Example 113 the antiviral activity was determined for the compounds listed below.
row,SMILES,ED50
1,"CCCCCCCCCCCCCCCCN(CCCCCCCCCCCCCCCC)Cc1cccc(C(=N)N)c1 [Example 2, m-[N,N-Di-(n-hexadecyl)aminomethyl]-benzamidine]",4.7 mg/kg
2,"CCCCCCCCCCCCCCCCN(CCCCCCCCCCCCCCCC)Cc1cccc(C(=N)NC(=O)C(=O)O)c1 [Example 4, m-[N,N-Di(n-hexadecyl)aminomethyl]-N-oxoacetic acid-benzamidine]",9.9 mg/kg
3,"CCCCCCCCCCCCCCCCN(CCCCCCCCCCCCCCCC)Cc1cccc(C(=N)Nc2ccc(OC)cc2)c1 [Example 6, m-[N,N-Di(n-hexadecyl)aminomethyl]-N-(p-methoxyphenyl)-benzamidine]",5.3 mg/kg
4,CCCCCCCCCCCCCCCCN(CCCCCCCCCCCCCCCC)Cc1cccc(C(=N)Nc2ccccc2)c1 [Example 7],12.3 mg/kg
5,CCCCCCCCCCCCCCCCN(CCCCCCCCCCCCCCCC)Cc1cccc(C(=N)Nc2ccc(Cl)cc2)c1 [Example 8],16 mg/kg
6,CCCCCCCCCCCCCCCCN(CCCCCCCCCCCCCCCC)Cc1cccc(C(=N)Nc2ccc(C)cc2)c1 [Example 9],7.7 mg/kg
7,CCCCCCCCCCCCCCCCN(CCCCCCCCCCCCCCCC)Cc1cccc(C(=N)Nc2ccccn2)c1 [Example 10],49.3 mg/kg
8,CCCCCCCCCCCCCCCCN(CCCCCCCCCCCCCCCC)Cc1cccc(C(=N)Nc2ccc(Cl)cc2Cl)c1 [Example 11],35.7 mg/kg
9,CCCCCCCCCCCCCCCCN(CCCCCCCCCCCCCCCC)Cc1cccc(C(=N)Nc2ccc(O)cc2)c1 [Example 12],4.9 mg/kg
10,CCCCCCCCCCCCCCCCN(CCCCCCCCCCCCCCCC)Cc1cccc(C(=N)Nc2cccc([N+](=O)[O-])c2)c1 [Example 13],21.6 mg/kg
11,CCCCCCCCCCCCCCCCN(CCCCCCCCCCCCCCCC)Cc1cccc(C(=N)Nc2ccc(N(C)C)cc2)c1 [Example 14],8 mg/kg
12,CCCCCCCCCCCCCCCCN(CCCCCCCCCCCCCCCC)Cc1cccc(C(=N)Nc2ccc(F)cc2)c1 [Example 15],38 mg/kg
13,CCCCCCCCCCCCCCCCN(CCCCCCCCCCCCCCCC)Cc1cccc(C(=N)Nc2ccc(S(N)(=O)=O)cc2)c1 [Example 16],7 mg/kg
14,CCCCCCCCCCCCCCCCN(CCCCCCCCCCCCCCCC)Cc1cccc(C(=N)Nc2ncccn2)c1 [Example 17],12.9 mg/kg
15,CCCCCCCCCCCCCCCCN(CCCCCCCCCCCCCCCC)Cc1cccc(C(=N)Nc2ccc(OCC)cc2)c1 [Example 18],17.9 mg/kg
16,CCCCCCCCCCCCCCCCN(CCCCCCCCCCCCCCCC)Cc1cccc(C(=N)Nc2ccc(S(C)(=O)=O)cc2)c1 [Example 19],8.9 mg/kg
17,"CCCCCCCCCCCCCCCCN(CCCCCCCCCCCCCCCC)Cc1cccc(C(=N)NC2CCCC2)c1 [Example 20, m-[N,N-Di(n-hexadecyl)aminomethyl]-N-cyclopentyl-benzamidine]",27.3 mg/kg
18,CCCCCCCCCCCCCCCCN(CCCCCCCCCCCCCCCC)Cc1cccc(C(=N)Nc2nc(C)cs2)c1 [Example 21],47.5 mg/kg
19,CCCCCCCCCCCCCCCCN(CCCCCCCCCCCCCCCC)Cc1cccc(C(=N)NCc2ccccc2)c1 [Example 22],7.8 mg/kg
20,"CCCCCCCCCCCCCCCCN(CCCCCCCCCCCCCCCC)Cc1cccc(C(=N)NN(C)C)c1 [Example 23, m-[N,N-di(n-hexadecyl)aminomethyl]-N-dimethylamino-benzamidine]",5 mg/kg
21,"CCCCCCCCCCCCCCCCN(CCCCCCCCCCCCCCCC)Cc1cccc(C(=N)NC(C)C)c1 [Example 25, m-[N,N-di(n-hexadecyl)aminomethyl]-N-(2-propyl)-benzamidine]",2.8 mg/kg
22,CCCCCCCCCCCCCCCCN(CCCCCCCCCCCCCCCC)Cc1cccc(C(=N)NCC)c1 [Example 26],7.6 mg/kg
23,"CCCCCCCCCCCCCCCCN(CCCCCCCCCCCCCCCC)Cc1cccc(C(=N)NC)c1 [Example 27, m-[N,N-di(n-hexadecyl)aminomethyl]-N-methyl-benzamidine]",5.7 mg/kg
24,"CCCCCCCCCCCCCCCCN(CCCCCCCCCCCCCCCC)Cc1cccc(C(=N)NCC(F)(F)F)c1 [Example 28, m-[N,N-Di(n-hexadecyl)aminomethyl]-N-(2,2,2-trifluoroethyl)-benzamidine]",3.8 mg/kg
25,CCCCCCCCCCCCCCCCN(CCCCCCCCCCCCCCCC)Cc1cccc(C(=N)NCC2CC2)c1 [Example 29],6.9 mg/kg
26,CCCCCCCCCCCCCCCCN(CCCCCCCCCCCCCCCC)Cc1cccc(C(=N)Nc2ccc(O)c(C)c2)c1 [Example 30],7.7 mg/kg
27,CCCCCCCCCCCCCCCCN(CCCCCCCCCCCCCCCC)Cc1cccc(C(=N)NCCc2cnc[nH]2)c1 [Example 31],11.7 mg/kg
28,CCCCCCCCCCCCCCCCN(CCCCCCCCCCCCCCCC)Cc1cccc(C(=N)Nc2ccc([N+](C)(C)C)cc2)c1 [Example 32],7.4 mg/kg
29,CCCCCCCCCCCCCCCCN(CCCCCCCCCCCCCCCC)Cc1cccc(C(=N)Nc2ccc(O)cc2O)c1 [Example 33],37.2 mg/kg

# Same assay, conditions: Mus musculus, ip, 240 h; as mg. free base (Example 115); i.p. 18-24 h before EMC virus challenge; day 10; read-out: ED50
row,SMILES,ED50
1,"CCCCCCCCCCCCCCCCN(CCCCCCCCCCCCCCCC)Cc1cccc(C(=N)NCCCS(=O)(=O)O)c1 [Example 3, m-[N,N-Di(n-hexadecyl)aminomethyl]-N-(n-propane)sulfonic acid-benzamidine]",8 mg/kg

# Same assay, conditions: Mus musculus, ip, 240 h; i.p. 18-24 h before s.c. EMC virus challenge; graphical, day 10; read-out: ED50 (dosage level required to obtain a fifty percent survival rate)
row,SMILES,ED50
1,"C=CCNC(=N)c1cccc(CN(CCCCCCCCCCCCCCCC)CCCCCCCCCCCCCCCC)c1 [Example 24, m-[N,N-di(n-hexadecyl)aminomethyl]-N-allyl-benzamidine]",4.7 mg/kg

# Same assay, conditions: mouse, in vivo, ip
SMILES,Number of Survivors on Day 0,Number of Survivors on Day 1,Number of Survivors on Day 2,Number of Survivors on Day 3,Number of Survivors on Day 4,Number of Survivors on Day 5,Number of Survivors on Day 6
"C=CCNC(=N)c1cccc(CN(CCCCCCCCCCCCCCCC)CCCCCCCCCCCCCCCC)c1 [Example 24, m-[N,N-di(n-hexadecyl)aminomethyl]-N-allyl-benzamidine]",10,10,10,10,9 and 10,8 and 6 and 5,8 and 6 and 4

# Tested on: circulating interferon
# Experiment: not given
# Design: species or system female Swiss mice
# Settings: mouse, in vivo, ip
row,SMILES,Plasma Interferon Levels
1,CCCCCCCCCCCCCCCCN(CCCCCCCCCCCCCCCC)Cc1cccc(C(=N)Nc2ccc(O)c(C)c2)c1 [Example 30],66 units/ml. and 87 units/ml. and 61 units/ml. and 64 units/ml.
